Entries after “also recorded” stand apart in the source; their conditions may differ.
How the values were obtained:
[1] = system: MDA-MB-468 cells; test: Mechanistic study of death process by flow cytometry (Annexin V / propidium iodide); assay type: cell-based; conditions: RB4 10 μM + US 1 MHz, 1 W/cm^2, 30 s; one day after treatment
Description: Mechanistic study of death process by flow cytometry: MDA-MB-468 cells (5×10^4) were incubated in complete media with or without 10 μM RB4 for 1 hour prior to ultrasound treatment. Then the plates were insonated at 1 MHz, 1 W/cm^2, 30 sec, 100% duty cycle. Following treatment, cells were re-incubated for 1 day, 4 groups of cells (Control, RB4 alone, ultrasound alone, and RB4 combined with ultrasound) were collected and washed twice with pre-cooled PBS. Cells were stained with FITC-conjugated Annexin-Y and propidium iodide for 15 minutes as per the manufacture's instructions, and then analyzed by flow cytometry. The percentage of dead cells and those undergoing apoptosis were analyzed using flow ‘cytometry’ analysis software.

[2] = system: MDA-MB-468 xenograft tumor; test: In vivo SMRT effect with intra-tumoral injected RB4, histochemical analysis; design: species or system BALB/c Nu/Nu female nude mice; conditions: two days after treatment
Description: (§1) In vivo SMRT effect with intra-tumoral injected RB4: MDA-MB-468 cells (10^7, 0.1 mL PBS) were subcutaneously inoculated into both flanks of BALB/c Nu/Nu female nude mice (5-6 weeks). The RB4 injections and ultrasound therapies were performed when the tumors had grown to approximately 4-5 mm in diameter, 20-22 days after inoculation. The tumors were treated with RB4 (10 μM, 50 μl) only, ultrasound only (1 MHz, 1 W cm2, 100% DC, 3 minutes), and a RB4-ultrasound combination (n=5), Under isoflurane anesthesia, RB4 was directly injected to the tumors of the mice. The ultrasound treatment was then performed immediately after the injection of RB4, with same transducer size. The same RB4-ultrasound treatment was performed on the thigh muscles of the mice. Histochemical analysis: Tumors and muscle tissue were harvested 2 days after therapy and the specimens were fixed in 10% formalin, cut in half, and embedded in paraffin. The paraffin sections (7 μm thick) were stained with hematoxylin-eosin (H&E). ImageJ 1.48 was used to measure the size of whole tumor and necrotic areas in the tumors.

[3] = Absorption and emission spectra; assay type: physicochemical
[4] = Chemical ROS assay (DCFH-DA) in solution under insonation; conditions: RB4 + DCFH solution insonated with different ultrasound powers, 30 s
Description: Chemical ROS assay: To study the insonation induced ROS generation in solution, RB4 was tested using a modified 2′, 7′-dichlorofluorescin diacetate (DCFH-DA) assay. DCFH-DA (1 ml, 1 mM in MeOH) was hydrolyzed in NaOH aqueous solution (0.01N, 4 mL) at RT for 30 minutes to yield anon-fluorescent DCFH intermediate. The solution was neutralized with 20 mL of NaH2PO4 (25 mM) and shielded with aluminum foil. The final solution of DCFH was around 40 μM. RB4 (1.0 mg) was dissolved in DMSO (1 mL) and then diluted with water into a 20 μM solution. The RB4 solution (20 μM, 10 mL) was mixed with a DCFH solution (40 μM, 10 mL) as the test solution. The test solution (0.5 mL) was placed into each well of a 24-well plate. The DCFH solution without RB4 was included as a background control. The plates were treated with ultrasound (0.4-1.2 watt/cm^2) one well by one well for 30 seconds: and the insonated wells were then checked using a fluorescence plate reader, ex 485 nm/em 520 nm.

[5] = system: thigh muscle (normal muscle tissue); test: Same RB4-ultrasound treatment on thigh muscle, histochemical analysis; assay type: in vivo, BALB/c Nu/Nu female nude mice; conditions: RB4 + US 1 MHz, 1 W/cm^2, 3 min applied to thigh muscle; two days after treatment
Description: as §1

[6] = system: MDA-MB-468; test: Toxicity of RB4 to cells (IC50); assay type: cell-based; conditions: Homo sapiens, RB4 alone
[7] = system: MDA-MB-468 breast cancer xenograft tumor; test: In vivo SMRT effect using preloaded tumor cells
Description: In vivo sono-membrane rupture therapy (SMRT) effect using preloaded tumor cells: MDA-MB-468 cells were suspended in PBS or RB4 (10 μM) in PBS for 1 day. The cells (5×10^6, 0.1 mL) were subcutaneously injected into both flanks. The left tumors, which were only treated with PBS, were the internal control; while the right tumors were treated with RB4 (10 μM) only, ultrasound only (1 MHz, 1 W/cm^2, 100% DC, 3 minutes), or an RB4-ultrasound combination (n=7). The transducer size was 0.75 cm^2. Tumor size was measured with slide calipers on days 7,10, 14,17,21,24, 28, and 36.

[8] = system: HT1080, fibrosarcoma; test: Sono-sensitivity of RB4 in a second cell line; assay type: cell-based; conditions: RB4 + ultrasound
[9] = system: MDA-MB-468 cells; test: Sonotoxicity with RB4: microscopy and MTS viability assay at 24 hours; assay type: cell-based
Description: Sonotoxicity with RB4: MDA-MB-468 ceils (5×10^4) in 24 well plates were incubated in complete media with 10 μM RB4 for 1 hour prior to the ultrasound treatment. The plates were then placed on a pre-cut gel pad (2 cm×3 cm) with multipurpose ultrasound gel over a mounted handheld ultrasound transducer (5 cm^2) at 1 MHz, 1 W/cm^2 for 30 s, 100% DC. Cells were checked under an EVOS® FL Auto Cell Imaging system microscope. Cell viability at 24 hours was quantitated using an MTS assay. The plate was incubated at 37° C. for 4 hours. Absorbance was measured at 490 nm using a microplate reader.

[10] = system: HT-1080; test: Toxicity of RB4 to cells (IC50); assay type: cell-based; conditions: Homo sapiens, RB4 alone
[11] = system: MDA-MB-468 cells; test: Cell based ROS scavenging assay; conditions: then RB4 10 μM 1 h, US 1 MHz, 1 W/cm^2, 30 s, MTS one day later; for protective effect of ROS scavenger: scavenger pretreatment 30 min
Description: Ceil based ROS scavenging assay: MDA-MB-468 cells (5×10^4) were treated with free radical scavengers, L-histidine (10 mM), D-mannitol (100 mM), N-acetyl cysteine (NAC, 0.5 mM), and superoxide dismutase (SOD, 100 μg/mL) for 30 minutes. The treated cells were then incubated with fresh media containing RB4 (10 μM) for an hour. After incubation, the wells were insonated (1 MHz, 1 W/cm^2, 30 sec, 100% DC) as described above. One day later, the cell's viability was assessed using the MTS solution.

O=C(NCCO)c1c(Cl)c(Cl)c(Cl)c(Cl)c1-c1c2cc(I)c(=O)c(I)c-2oc2c(I)c(O)c(I)cc12 [RB4, 2,3,4,5-tetrachloro-6-(6-hydroxy-2,4,5,7-tetraiodo-3-oxo-3H-xanthen-9-yl)-N-(2-hydroxyethyl)-benzamide]
PI positive cells [1]: 3% | annexin positive cells [1]: 8% | annexin/PI double positive cells [1]: 36% | necrotic area ([2]; RB4 50 μL, 10 μM intratumoral + US 1 MHz, 1 W/cm^2, 3 min): ~40% | necrosis on HE staining (in words) ([2]; RB4 50 μl, 10 μM intratumoral + US 1 MHz, 1 W/cm^2, 3 min): A large necrotic area | tissue damage on HE staining (in words) ([2]; RB4 alone 50 μl, 10 μM intratumoral): Little effect; also recorded: little tissue damage | absorption and emission (in words) [3]: neither absorption nor emission above 400 nm | ROS level of RB4 solution [4]: not significantly different from the background level | damage to normal muscle tissue [5]: maintained their normal structures without damage; also recorded: no damaged cells were found | IC50 [6]: 71 µM | tumor growth inhibition (in words) ([7]; RB4 10 μM + US 1 MHz, 1 W/cm^2, 3 min, N=7): significant growth arrest | average tumor size relative to control untreated tumor ([7]; RB4 10 μM preloaded cells + US 1 MHz, 1 W/cm^2, 3 min, up to 36 days): about 20% | tumor growth inhibition (in words) ([7]; RB4 alone 10 μM): about the same as the untreated group; also recorded: no appreciable inhibition effect | growth rate ratio of treated vs. untreated tumors ([7]; RB4 alone (cells pre-incubated with 10 μM for 1 day), up to 36 days): ≈ 1 | cells killed [8]: 95% | cells killed ([9]; RB4 10 μM 60 min + ultrasound 1 MHz, 1 W/cm^2, 30 s, viability one day later): over 90% | cell damage in microscopic images ([9]; RB4 10 μM + ultrasound 1 MHz, 1 W/cm^2, 30 s): significant damage | cell viability ([9]; RB4 alone 10 μM, 60 min, no ultrasound, MTS one day later): > 80 % viable | cell damage in microscopic images ([9]; RB4 alone 10 μM, versus untreated): Little difference | IC50 [10]: 157 µM

N[C@@H](Cc1c[nH]cn1)C(=O)O [L-histidine]
protective effect of ROS scavenger [11]: none, with the exception of NAC, showed any protective effects

O=C1OC2(c3cc(I)c(O)c(I)c3Oc3c2cc(I)c(O)c3I)c2c(Cl)c(Cl)c(Cl)c(Cl)c21 [RB, Rose Bengal]
absorption maximum [3]: 549 nm | emission maximum [3]: 565 nm

OC[C@@H](O)[C@@H](O)[C@H](O)[C@H](O)CO [D-mannitol]
protective effect of ROS scavenger [11]: none, with the exception of NAC, showed any protective effects

CC(=O)N[C@@H](CS)C(=O)O [NAC, N-acetyl cysteine]
fraction of cells rescued from RB4 and ultrasound combination treatment ([11]; scavenger pretreatment 30 min (NAC 0.5 mM)): ~20% | protective effect of ROS scavenger [11]: able to rescue a fraction of cells

superoxide dismutase
protective effect of ROS scavenger [11]: none, with the exception of NAC, showed any protective effects
